{"source": "patent US20150087673A1", "about": "“METHODS FOR USING AND BIOMARKERS FOR AMPK-ACTIVATING COMPOUNDS” (RIGEL PHARMACEUTICALS, INC., priority 2013, published 2015)", "data": [{"test_system": "AMPK", "test": "AMPK activation assay (enzyme-linked immunosorbent assay)", "format": "cell-based", "summary_of_the_method": "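Compounds were tested for their capacity to activate the kinase using standard, commercially available kit reagents and procedures.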", "units": {"EC50": "nM"}, "values": [{"smiles": "N#Cc1ccc(O[C@H]2CC[C@@H](NC(=O)c3ccc(C(=O)N4CCC(Oc5ccc(F)cc5)CC4)cn3)CC2)cc1", "note": "[Compound 167, N-((cis)-4-(4-cyanophenoxy)cyclohexyl)-5-(4-(4-fluorophenoxy)piperidine-1-carbonyl)picolinamide]", "EC50": "< 500"}, {"smiles": "N#Cc1ccc(O[C@H]2CC[C@H](NC(=O)c3ccc(C(=O)N4CCC(C(=O)c5ccc(F)cc5)CC4)cn3)CC2)cc1", "note": "[Compound 168, N-((trans)-4-(4-cyanophenoxy)cyclohexyl)-5-(4-(4-fluorobenzoyl)piperidine-1-carbonyl)picolinamide]", "EC50": "< 500"}, {"smiles": "N#Cc1ccc(O[C@H]2CC[C@H](NC(=O)c3ccc(C(=O)N4CCC(Oc5ccc(F)cc5)CC4)cn3)CC2)cc1", "note": "[Compound 169, N-((trans)-4-(4-cyanophenoxy)cyclohexyl)-5-(4-(4-fluorophenoxy)piperidine-1-carbonyl)picolinamide]", "EC50": "500 to 1000"}, {"smiles": "O=C(Nc1ccc(C(=O)N2CCN(Cc3ccc(F)cc3)CC2)cn1)c1ccc(-c2ccccc2)cc1", "note": "[Compound 170, N-(5-(4-(4-fluorobenzyl)piperazine-1-carbonyl)pyridin-2-yl)biphenyl-4-carboxamide]", "EC50": "> 10000"}, {"smiles": "COc1ccc(C(=O)C2CCN(C(=O)c3ccc(C(=O)N[C@H]4CC[C@@H](Oc5ccc(C#N)cc5)CC4)nc3)CC2)cc1", "note": "[Compound 171, N-((cis)-4-(4-cyanophenoxy)cyclohexyl)-5-(4-(4-methoxybenzoyl)piperidine-1-carbonyl)picolinamide]", "EC50": "< 500"}, {"smiles": "COc1ccc(OC2CCN(C(=O)c3ccc(C(=O)N[C@H]4CC[C@H](Oc5ccc(C#N)cc5)CC4)nc3)CC2)cc1", "note": "[Compound 172, N-((trans)-4-(4-cyanophenoxy)cyclohexyl)-5-(4-(4-methoxyphenoxy)piperidine-1-carbonyl)picolinamide]", "EC50": "< 500"}, {"smiles": "N#Cc1ccc(CN2CCC(C(=O)Nc3ccc(C(=O)N4CCC(Oc5ccc(F)cc5)CC4)cn3)CC2)cc1", "note": "[Compound 173, 1-(4-cyanobenzyl)-N-(5-(4-(4-fluorophenoxy)piperidine-1-carbonyl)pyridin-2-yl)piperidine-4-carboxamide]", "EC50": "< 500"}, {"smiles": "COc1ccc(OC2CCN(C(=O)c3ccc(C(=O)N[C@H]4CC[C@@H](Oc5ccc(C#N)cc5)CC4)nc3)CC2)cc1", "note": "[Compound 174, N-((cis)-4-(4-cyanophenoxy)cyclohexyl)-5-(4-(4-methoxyphenoxy)piperidine-1-carbonyl)picolinamide]", "EC50": "< 500"}, {"smiles": "N#Cc1ccc(CN2CCC(C(=O)Nc3ccc(C(=O)N4CCC(C(=O)c5ccc(F)cc5)CC4)cn3)CC2)cc1", "note": "[Compound 175, 1-(4-cyanobenzyl)-N-(5-(4-(4-fluorobenzoyl)piperidine-1-carbonyl)pyridin-2-yl)piperidine-4-carboxamide]", "EC50": "< 500"}, {"smiles": "N#Cc1ccc(O[C@H]2CC[C@@H](NC(=O)c3ccc(C(=O)N4CC[C@H](Oc5ccc(F)cc5)C4)cn3)CC2)cc1", "note": "[Compound 176, N-((cis)-4-(4-cyanophenoxy)cyclohexyl)-5-((S)-3-(4-fluorophenoxy)pyrrolidine-1-carbonyl)picolinamide]", "EC50": "1000 to 5000"}, {"smiles": "O=C(Nc1ccc(C(=O)N2CCN(Cc3ccc(F)cc3)CC2)cn1)c1ccc(Oc2ccc(F)cc2)nc1", "note": "[Compound 177, N-(5-(4-(4-fluorobenzyl)piperazine-1-carbonyl)pyridin-2-yl)-6-(4-fluorophenoxy)nicotinamide]", "EC50": "1000 to 5000"}, {"smiles": "COc1ccc(C(=O)C2CCN(C(=O)c3ccc(C(=O)NC4CCN(Cc5ccc(F)cc5)CC4)nc3)CC2)cc1", "note": "[Compound 178, N-(1-(4-fluorobenzyl)piperidin-4-yl)-5-(4-(4-methoxybenzoyl)piperidine-1-carbonyl)picolinamide]", "EC50": "< 500"}, {"smiles": "O=C(NC1CCN(Cc2ccc(F)cc2)CC1)c1ccc(C(=O)N2CCC(Oc3ccc(C(F)(F)F)cc3)CC2)cn1", "note": "[Compound 179, N-(1-(4-fluorobenzyl)piperidin-4-yl)-5-(4-(4-(trifluoromethyl)phenoxy)piperidine-1-carbonyl)picolinamide]", "EC50": "< 500"}, {"smiles": "O=C(NC1CCN(Cc2ccc(F)cc2)CC1)c1ccc(C(=O)N2CCC(Oc3ccc(F)cc3)CC2)cn1", "note": "[Compound 180, N-(1-(4-fluorobenzyl)piperidin-4-yl)-5-(4-(4-fluorophenoxy)piperidine-1-carbonyl)picolinamide]", "EC50": "< 500"}, {"smiles": "O=C(NC1CCN(Cc2ccc(F)cc2)CC1)c1ccc(C(=O)N2CCC(C(=O)c3ccc(F)cc3)CC2)cn1", "note": "[Compound 181, 5-(4-(4-fluorobenzoyl)piperidine-1-carbonyl)-N-(1-(4-fluorobenzyl)piperidin-4-yl)picolinamide]", "EC50": "< 500"}, {"smiles": "O=C(NC1CCN(Cc2ccc(F)cc2)CC1)c1ccc(C(=O)N2CC[C@H](Oc3ccc(F)cc3)C2)cn1", "note": "[Compound 182, (S)-N-(1-(4-fluorobenzyl)piperidin-4-yl)-5-(3-(4-fluorophenoxy)pyrrolidine-1-carbonyl)picolinamide]", "EC50": "< 500"}, {"smiles": "COc1ccc(OC2CCN(C(=O)c3ccc(C(=O)NC4CCN(Cc5ccc(F)cc5)CC4)nc3)CC2)cc1", "note": "[Compound 183, N-(1-(4-fluorobenzyl)piperidin-4-yl)-5-(4-(4-methoxyphenoxy)piperidine-1-carbonyl)picolinamide]", "EC50": "< 500"}, {"smiles": "COc1ccc(O[C@H]2CC[C@@H](NC(=O)c3ccc(C(=O)N4CCC(C(=O)c5ccc(OC)cc5)CC4)cn3)CC2)cc1", "note": "[Compound 184, 5-(4-(4-methoxybenzoyl)piperidine-1-carbonyl)-N-((cis)-4-(4-methoxyphenoxy)cyclohexyl)picolinamide]", "EC50": "< 500"}, {"smiles": "COc1ccc(O[C@H]2CC[C@@H](NC(=O)c3ccc(C(=O)N4CCC(Oc5ccc(C(F)(F)F)cc5)CC4)cn3)CC2)cc1", "note": "[Compound 185, N-((cis)-4-(4-methoxyphenoxy)cyclohexyl)-5-(4-(4-(trifluoromethyl)phenoxy)piperidine-1-carbonyl)picolinamide]", "EC50": "< 500"}, {"smiles": "COc1ccc(OC2CCN(C(=O)c3ccc(C(=O)N[C@H]4CC[C@@H](Oc5ccc(OC)cc5)CC4)nc3)CC2)cc1", "note": "[Compound 186, N-((cis)-4-(4-methoxyphenoxy)cyclohexyl)-5-(4-(4-methoxyphenoxy)piperidine-1-carbonyl)picolinamide]", "EC50": "< 500"}, {"smiles": "O=C(c1ccc(N2CCC(Oc3ccc(C(F)(F)F)cc3)CC2)nc1)N1CCN(Cc2ccc(F)cc2)CC1", "note": "[Compound 187, (4-(4-fluorobenzyl)piperazin-1-yl)(6-(4-(4-(trifluoromethyl)phenoxy)piperidin-1-yl)pyridin-3-yl)methanone]", "EC50": "1000 to 5000"}, {"smiles": "N#Cc1ccc(OC2CCN(c3ccc(C(=O)N4CCN(Cc5ccc(F)cc5)CC4)cn3)CC2)cc1", "note": "[Compound 188, 4-(1-(5-(4-(4-fluorobenzyl)piperazine-1-carbonyl)pyridin-2-yl)piperidin-4-yloxy)benzonitrile]", "EC50": "500 to 1000"}, {"smiles": "COc1ccc(C(=O)C2CCN(c3ccc(C(=O)N4CCN(Cc5ccc(F)cc5)CC4)cn3)CC2)cc1", "note": "[Compound 189, (4-(4-fluorobenzyl)piperazin-1-yl)(6-(4-(4-methoxybenzoyl)piperidin-1-yl)pyridin-3-yl)methanone]", "EC50": "1000 to 5000"}, {"smiles": "N#Cc1ccc(O[C@H]2CC[C@@H](NC(=O)c3ccc(C(=O)N4CCC(Oc5ccc(C(F)(F)F)cc5)CC4)cn3)CC2)cc1", "note": "[Compound 190, N-((cis)-4-(4-cyanophenoxy)cyclohexyl)-5-(4-(4-(trifluoromethyl)phenoxy)piperidine-1-carbonyl)picolinamide]", "EC50": "< 500"}, {"smiles": "COc1ccc(OC2CCN(C(=O)c3ccc(C(=O)N[C@H]4CC[C@@H](Oc5ccc(C(F)(F)F)cc5)CC4)nc3)CC2)cc1", "note": "[Compound 191, 5-(4-(4-methoxyphenoxy)piperidine-1-carbonyl)-N-((cis)-4-(4-(trifluoromethyl)phenoxy)cyclohexyl) picolinamide]", "EC50": "< 500"}, {"smiles": "COc1ccc(C(=O)C2CCN(C(=O)c3ccc(C(=O)N[C@H]4CC[C@@H](Oc5ccc(C(F)(F)F)cc5)CC4)nc3)CC2)cc1", "note": "[Compound 192, 5-(4-(4-methoxybenzoyl)piperidine-1-carbonyl)-N-((cis)-4-(4-(trifluoromethyl)phenoxy)cyclohexyl) picolinamide]", "EC50": "< 500"}, {"smiles": "N#Cc1ccc(OC2CCN(C(=O)c3ccc(C(=O)N[C@H]4CC[C@@H](Oc5ccc(C(F)(F)F)cc5)CC4)nc3)CC2)cc1", "note": "[Compound 193, 5-(4-(4-cyanophenoxy)piperidine-1-carbonyl)-N-((cis)-4-(4-(trifluoromethyl)phenoxy)cyclohexyl) picolinamide]", "EC50": "< 500"}, {"smiles": "COc1ccc(C(=O)C2CCN(C(=O)c3ccc(C(=O)NC4CCN(Cc5ccc(N6CCCC6)cc5)CC4)nc3)CC2)cc1", "note": "[Compound 194, 5-(4-(4-methoxybenzoyl)piperidine-1-carbonyl)-N-(1-(4-(pyrrolidin-1-yl)benzyl)piperidin-4-yl)picolinamide]", "EC50": "< 500"}, {"smiles": "COc1ccc(OC2CCN(C(=O)c3ccc(C(=O)NC4CCN(Cc5ccc(N6CCCC6)cc5)CC4)nc3)CC2)cc1", "note": "[Compound 195, 5-(4-(4-methoxyphenoxy)piperidine-1-carbonyl)-N-(1-(4-(pyrrolidin-1-yl)benzyl)piperidin-4-yl)picolinamide]", "EC50": "< 500"}, {"smiles": "O=C(NC1CCN(Cc2ccc(N3CCCC3)cc2)CC1)c1ccc(C(=O)N2CCC(Oc3ccc(F)cc3)CC2)cn1", "note": "[Compound 196, 5-(4-(4-fluorophenoxy)piperidine-1-carbonyl)-N-(1-(4-(pyrrolidin-1-yl)benzyl)piperidin-4-yl)picolinamide]", "EC50": "< 500"}, {"smiles": "N#Cc1ccc(OC2CCN(C(=O)c3ccc(C(=O)NC4CCN(Cc5ccc(N6CCCC6)cc5)CC4)nc3)CC2)cc1", "note": "[Compound 197, 5-(4-(4-cyanophenoxy)piperidine-1-carbonyl)-N-(1-(4-(pyrrolidin-1-yl)benzyl)piperidin-4-yl)picolinamide]", "EC50": "< 500"}, {"smiles": "COc1ccc(C(=O)C2CCN(C(=O)c3ccc(C(=O)N[C@H]4CC[C@@H](Oc5ccc(C#N)c(F)c5)CC4)nc3)CC2)cc1", "note": "[Compound 198, N-((cis)-4-(4-cyano-3-fluorophenoxy)cyclohexyl)-5-(4-(4-methoxybenzoyl)piperidine-1-carbonyl)picolinamide]", "EC50": "< 500"}, {"smiles": "N#Cc1ccc(O[C@H]2CC[C@@H](NC(=O)c3ccc(C(=O)N4CCC(Oc5ccc(C(F)(F)F)cc5)CC4)cn3)CC2)cc1F", "note": "[Compound 199, N-((cis)-4-(4-cyano-3-fluorophenoxy)cyclohexyl)-5-(4-(4-(trifluoromethyl)phenoxy)piperidine-1-carbonyl)picolinamide]", "EC50": "< 500"}]}]}
